Test results from patent US10131652B2, “Pyrimidinyloxy benzene derivatives as herbicides” (E. I. DU PONT DE NEMOURS AND COMPANY, priority 2014, dated 2018).

Assays:
Format in all cases: in vivo
[1] = test system: galium (catchweed bedstraw, Galium aparine); experiment: Test D pre-/postemergence plant response; settings: Postemergence; for Plant response rating, Galium: scale 0 to 100, 0 no effect, 100 complete control
In short: (§1)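 Sown seed (loam/sand soil) treated preemergence; emerged plants, 1- to 4-leaf stage and 2 to 18 cm, treated postemergence in peat/vermiculite medium. Greenhouse incubation 13–15 d. Endpoint: visual 0–100 rating versus untreated.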

[2] = test system: Italian ryegrass (Lolium multiflorum); experiment: Test D pre-/postemergence plant response; settings: Postemergence
In short: as §1

[3] = test system: winter wheat (Triticum aestivum); experiment: Test D pre-/postemergence plant response; settings: Postemergence
In short: as §1

corn (Zea mays) = experiment: Test D pre-/postemergence plant response; settings: Postemergence; for Plant response rating, Corn: scale 0 to 100, 0 no effect, 100 complete control
In short: as §1

[4] = test system: oilseed rape (Brassica napus); experiment: Test D pre-/postemergence plant response; settings: Postemergence
In short: as §1

[5] = test system: lambsquarters (Chenopodium album); experiment: Test D pre-/postemergence plant response; settings: Postemergence
In short: as §1

[6] = test system: velvetleaf (Abutilon theophrasti); experiment: Test D pre-/postemergence plant response; settings: Postemergence
In short: as §1

kochia (Kochia scoparia) = experiment: Test B pre-/postemergence plant response
In short: (§2)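 Visual injury rating, 0 (no effect) to 100 (complete control), vs untreated controls after ~10 d greenhouse. Pre: directed soil spray after planting in loam/sand. Post: plants 2–10 cm, 1–2 leaf stage. Compound in non-phytotoxic solvent plus surfactant.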

[7] = test system: Italian ryegrass (Lolium multiflorum); experiment: Test B pre-/postemergence plant response
In short: as §2

[8] = test system: ragweed (common ragweed, Ambrosia elatior); experiment: Test B pre-/postemergence plant response
In short: as §2

[9] = test system: barnyardgrass (Echinochloa crus-galli); experiment: Test C flooded paddy test plant response; settings: Flood, 250 g ai/ha; scale of 0 to 100 where 0 is no effect and 100 is complete control; 13 to 15 days
In short: (§3)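 Greenhouse paddy assay, 13–15 days. Treatment into 3 cm floodwater over 2-leaf plants; visual 0–100 rating against controls.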

[10] = test system: small-flower umbrella sedge (Cyperus difformis); experiment: Test C flooded paddy test plant response; settings: Flood, 250 g ai/ha; scale of 0 to 100 where 0 is no effect and 100 is complete control; 13 to 15 days
In short: as §3

[11] = test system: ducksalad (Heteranthera limosa); experiment: Test C flooded paddy test plant response; settings: Flood, 250 g ai/ha; scale of 0 to 100 where 0 is no effect and 100 is complete control; 13 to 15 days
In short: as §3

rice (Oryza sativa) = experiment: Test C flooded paddy test plant response; settings: Flood, 250 g ai/ha; scale of 0 to 100 where 0 is no effect and 100 is complete control; 13 to 15 days
In short: as §3

[12] = 31 g ai/ha, Preemergence, 0 to 100 scale where 0 is no effect and 100 is complete control
[13] = 125 g ai/ha, postemergence, 0 to 100 scale, 0 no effect, 100 complete control
[14] = Postemergence, 31 g ai/ha, 0 to 100 scale (0 no effect, 100 complete control)
[15] = Preemergence, 125 g ai/ha, 0 to 100 scale (0 no effect, 100 complete control)
[16] = 31 g ai/ha, scale 0 to 100 (0 no effect, 100 complete control)
[17] = 62 g ai/ha, scale 0 to 100, 0 no effect, 100 complete control
[18] = 125 g ai/ha, scale 0 to 100, 0 no effect, 100 complete control

CC(F)(F)c1cc(-c2ccccc2Oc2ncc(Cl)cn2)no1 [Compound 220]
Plant response rating (scale 0 to 100), Galium ([1]; 2 g ai/ha): 50 | Plant response rating (scale 0 to 100), Galium ([1]; 4 g ai/ha): 50 | Plant response rating (scale 0 to 100), Galium ([1]; 8 g ai/ha): 55 | Plant response rating (scale 0 to 100), Galium ([1]; 16 g ai/ha): 60 | Plant response rating (scale 0 to 100), Ryegrass, Italian ([2]; 2 g ai/ha): 0 | Plant response rating (scale 0 to 100), Ryegrass, Italian ([2]; 4 g ai/ha): 0 | Plant response rating (scale 0 to 100), Ryegrass, Italian ([2]; 8 g ai/ha): 0 | Plant response rating (scale 0 to 100), Ryegrass, Italian ([2]; 16 g ai/ha): 0 | Plant response rating (scale 0 to 100), Wheat ([3]; 2 g ai/ha): 0 | Plant response rating (scale 0 to 100), Wheat ([3]; 4 g ai/ha): 0 | Plant response rating (scale 0 to 100), Wheat ([3]; 8 g ai/ha): 0 | Plant response rating (scale 0 to 100), Wheat ([3]; 16 g ai/ha): 0 | Plant response rating (scale 0 to 100), Corn (corn (Zea mays); 2 g ai/ha): 0 | Plant response rating (scale 0 to 100), Corn (corn (Zea mays); 4 g ai/ha): 5 | Plant response rating (scale 0 to 100), Corn (corn (Zea mays); 8 g ai/ha): 5 | Plant response rating (scale 0 to 100), Corn (corn (Zea mays); 16 g ai/ha): 5 | Plant response rating (scale 0 to 100), Oilseed Rape ([4]; 2 g ai/ha): 0 | Plant response rating (scale 0 to 100), Oilseed Rape ([4]; 4 g ai/ha): 5 | Plant response rating (scale 0 to 100), Oilseed Rape ([4]; 8 g ai/ha): 5 | Plant response rating (scale 0 to 100), Oilseed Rape ([4]; 16 g ai/ha): 10 | Plant response rating (scale 0 to 100), Lambsquarters ([5]; 2 g ai/ha): 55 | Plant response rating (scale 0 to 100), Lambsquarters ([5]; 4 g ai/ha): 45 | Plant response rating (scale 0 to 100), Lambsquarters ([5]; 8 g ai/ha): 5 | Plant response rating (scale 0 to 100), Lambsquarters ([5]; 16 g ai/ha): 70 | Plant response rating (scale 0 to 100), Velvetleaf ([6]; 2 g ai/ha): 5 | Plant response rating (scale 0 to 100), Velvetleaf ([6]; 4 g ai/ha): 15 | Plant response rating (scale 0 to 100), Velvetleaf ([6]; 8 g ai/ha): 10 | Plant response rating (scale 0 to 100), Velvetleaf ([6]; 16 g ai/ha): 25 | Plant response rating, Kochia (kochia (Kochia scoparia); [12]): 50 | Plant response rating, Kochia (kochia (Kochia scoparia); [13]): 100 | Plant response rating, Kochia (kochia (Kochia scoparia); [14]): 90 | Kochia plant response rating (kochia (Kochia scoparia); [15]): 90 | Plant response rating, Ryegrass, Italian [7, 12]: 0 | Plant response rating, Ryegrass, Italian [7, 13]: 40 | Plant response rating, Ryegrass, Italian [7, 14]: 0 | Ryegrass, Italian plant response rating [7, 15]: 30 | Plant response rating, Ragweed [8, 12]: 0 | Plant response rating, Ragweed [8, 13]: 10 | Plant response rating, Ragweed [8, 14]: 0 | Ragweed plant response rating [8, 15]: 10 | Barnyardgrass plant response rating [9]: 20 | Sedge, Umbrella plant response rating [10]: 75 | Ducksalad plant response rating [11]: 80 | Rice plant response rating (rice (Oryza sativa)): 0

Fc1ccc(Oc2ncc(Cl)cn2)c(-c2cc(C(F)(Cl)Cl)on2)c1 [Compound 221]
Plant response rating (scale 0 to 100), Galium ([1]; 16 g ai/ha): 80 | Galium plant response rating [1, 16]: 80 | Plant response rating, Galium ([1]; 62 g ai/ha): 100 | Plant response rating, Galium ([1]; 125 g ai/ha): 100 | Plant response rating (scale 0 to 100), Ryegrass, Italian ([2]; 16 g ai/ha): 5 | Ryegrass, Italian plant response rating [2, 16]: 5 | Ryegrass, Italian plant response rating [2, 17]: 20 | Plant response rating, Ryegrass, Italian [2, 18]: 10 | Plant response rating (scale 0 to 100), Wheat ([3]; 16 g ai/ha): 0 | Wheat plant response rating [3, 16]: 0 | Wheat plant response rating [3, 17]: 5 | Plant response rating, Wheat [3, 18]: 0 | Plant response rating (scale 0 to 100), Corn (corn (Zea mays); 16 g ai/ha): 0 | Corn plant response rating (corn (Zea mays); [16]): 0 | Plant response rating, Corn (corn (Zea mays); 62 g ai/ha): 5 | Plant response rating, Corn (corn (Zea mays); 125 g ai/ha): 10 | Plant response rating (scale 0 to 100), Oilseed Rape ([4]; 16 g ai/ha): 70 | Oilseed Rape plant response rating [4, 16]: 70 | Oilseed Rape plant response rating [4, 17]: 90 | Plant response rating, Oilseed Rape [4, 18]: 90 | Plant response rating (scale 0 to 100), Lambsquarters ([5]; 16 g ai/ha): 85 | Lambsquarters plant response rating [5, 16]: 95 | Lambsquarters plant response rating [5, 17]: 95 | Plant response rating, Lambsquarters [5, 18]: 98 | Plant response rating (scale 0 to 100), Velvetleaf ([6]; 16 g ai/ha): 70 | Velvetleaf plant response rating [6, 16]: 65 | Velvetleaf plant response rating [6, 17]: 80 | Plant response rating, Velvetleaf [6, 18]: 100 | Plant response rating, Kochia (kochia (Kochia scoparia); [12]): 50 | Plant response rating, Kochia (kochia (Kochia scoparia); [13]): 100 | Plant response rating, Kochia (kochia (Kochia scoparia); [14]): 80 | Kochia plant response rating (kochia (Kochia scoparia); [15]): 70 | Plant response rating, Ryegrass, Italian [7, 12]: 20 | Plant response rating, Ryegrass, Italian [7, 13]: 40 | Plant response rating, Ryegrass, Italian [7, 14]: 0 | Ryegrass, Italian plant response rating [7, 15]: 40 | Plant response rating, Ragweed [8, 12]: 0 | Plant response rating, Ragweed [8, 13]: 50 | Plant response rating, Ragweed [8, 14]: 10 | Ragweed plant response rating [8, 15]: 0 | Barnyardgrass plant response rating [9]: 0 | Sedge, Umbrella plant response rating [10]: 95 | Ducksalad plant response rating [11]: 100 | Rice plant response rating (rice (Oryza sativa)): 0
